Measurements as given in US7820672B2, “Indolylmaleimide derivatives” (Novartis AG, priority 2003, dated 2010).

Columns and labels:
Human recombinant PKCθ = Human recombinant PKCθ (Homo sapiens, UniProt Q04759); assay: Protein Kinase C θ assay; type: biochemical
Method: (§1) The compounds of formula I are tested for their activity on different PKC isoforms according to a published method (D. Geiges et al. Biochem. Pharmacol. 1997; 53:865-875) The assay is performed in a 96-well polypropylene microtiterplate (Costar 3794) that has been previously siliconized with Sigmacote (Sigma SL-2). The reaction mixture (50 μl) contains 10 μl of the relevant PKC isozyme together with 25 μl of the test compound and 15 μl of a mix solution that contains 200 μg/ml protamine sulfate, 10 mM Mg(NO3)2, 10 μM ATP (Boehringer 519987) and 3750 Bq of ^33P-ATP (Hartmann Analytic SFC301, 110 TBq/mmol) in 20 mM Tris-buffer pH 7.4+0.1% BSA. Incubation is performed for 15 min at 32° C. in a microtiterplate shaking incubator (Biolabo Scientific Instruments). Reaction is stopped by adding 10 μl of 0.5 M Na2EDTA, pH 7.4. 50 μl of mixture are pipetted onto a pre-wetted phosphocellulose paper (Whatmann 3698-915) under gentle pressure. Non-incorporated ATP is washed away with 100 μl bi-dist H2O. The paper is washed twice in 0.5% H3PO4 for 15 min followed by 5 min in EtOH. Thereafter the paper is dryed and placed in an omnifilter (Packard 6005219), and overlayed with 10 μl/well of Microscint-O (Packard 6013611) before counting in a Topcount radioactivity counter (Packard). IC50 measurement is performed on a routine basis by incubating a serial dilution of inhibitor at concentrations ranging between 1-1000 μM according to the method described above. IC50 value are calculated from the graph by sigmoidal curve fitting.
Human recombinant PKCθ is used under the assay conditions as described above. In this assay, compounds of formula I inhibit PKC θ with an IC50≦1 μM.

Human recombinant PKCα = biological target: T1, Human recombinant PKCα (Homo sapiens, UniProt P17252); assay: Protein Kinase Cα assay; type: biochemical
T1 construct: purchased Oxford Biomedical Research
Method: as §1
Human recombinant PKCα was obtained from Oxford Biomedical Research and is used under the assay conditions as described under Section A.1 above. In this assay, compounds of formula I inhibit PKCα with an IC50≦1 μM.

Human recombinant PKCβ1 = biological target: T2, Human recombinant PKCβ1 (Homo sapiens, UniProt P05771); assay: Protein Kinase Cβ1 assay; type: biochemical
T2 construct: purchased Oxford Biomedical Research
T2 sequence (P05771 whole entry): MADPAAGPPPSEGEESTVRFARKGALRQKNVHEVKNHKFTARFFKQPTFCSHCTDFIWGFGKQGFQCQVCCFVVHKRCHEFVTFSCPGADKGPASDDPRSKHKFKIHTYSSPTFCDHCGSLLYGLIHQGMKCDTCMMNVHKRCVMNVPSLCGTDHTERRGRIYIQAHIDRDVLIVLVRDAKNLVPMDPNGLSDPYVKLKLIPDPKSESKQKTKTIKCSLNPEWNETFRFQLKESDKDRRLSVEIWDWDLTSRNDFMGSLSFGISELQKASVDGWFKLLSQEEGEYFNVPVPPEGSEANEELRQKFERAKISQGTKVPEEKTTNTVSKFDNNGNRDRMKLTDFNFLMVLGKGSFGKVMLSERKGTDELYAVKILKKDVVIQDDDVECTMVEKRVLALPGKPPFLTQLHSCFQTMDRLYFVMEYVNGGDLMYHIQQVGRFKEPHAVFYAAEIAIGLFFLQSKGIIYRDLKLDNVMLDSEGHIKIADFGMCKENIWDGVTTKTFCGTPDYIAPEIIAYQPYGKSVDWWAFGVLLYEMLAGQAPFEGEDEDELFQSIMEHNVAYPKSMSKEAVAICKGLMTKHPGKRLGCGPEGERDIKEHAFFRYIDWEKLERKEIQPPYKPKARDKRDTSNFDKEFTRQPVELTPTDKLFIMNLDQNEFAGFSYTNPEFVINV
Method: as §1
Human recombinant PKCβ1 was obtained from Oxford Biomedical Research and is used under the assay conditions as described under Section A.1 above. In this assay, compounds of formula I inhibit PKCβ1 with an IC50≦1 μM.

Human recombinant PKCδ = biological target: T3, Human recombinant PKCδ (Homo sapiens, UniProt Q05655); assay: Protein Kinase Cδ assay; type: biochemical
T3 construct: purchased Oxford Biomedical Research
T3 sequence (Q05655 whole entry): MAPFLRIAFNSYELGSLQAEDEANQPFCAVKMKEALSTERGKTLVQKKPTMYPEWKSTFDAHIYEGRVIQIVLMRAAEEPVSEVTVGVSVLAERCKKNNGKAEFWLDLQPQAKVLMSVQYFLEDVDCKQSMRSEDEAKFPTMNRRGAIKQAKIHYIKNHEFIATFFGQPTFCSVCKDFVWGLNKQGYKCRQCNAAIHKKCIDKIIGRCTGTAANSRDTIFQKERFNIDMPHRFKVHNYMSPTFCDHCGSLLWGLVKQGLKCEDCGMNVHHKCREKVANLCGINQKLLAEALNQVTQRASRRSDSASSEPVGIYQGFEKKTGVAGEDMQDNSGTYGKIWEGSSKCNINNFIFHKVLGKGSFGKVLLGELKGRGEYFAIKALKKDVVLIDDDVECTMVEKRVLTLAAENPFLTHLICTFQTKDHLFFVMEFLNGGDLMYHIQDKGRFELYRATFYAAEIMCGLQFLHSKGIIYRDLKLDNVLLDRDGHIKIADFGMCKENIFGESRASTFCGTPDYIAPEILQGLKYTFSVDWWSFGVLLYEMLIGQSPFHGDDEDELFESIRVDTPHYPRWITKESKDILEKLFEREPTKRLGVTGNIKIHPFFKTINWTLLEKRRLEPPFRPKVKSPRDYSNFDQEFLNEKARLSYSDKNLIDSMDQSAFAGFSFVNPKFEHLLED
Method: as §1, with “IC50 measurement is performed on a routine basis by incubating a serial dilution of inhibitor at concentrations ranging between 1-1000 μM according to the method described above.” left out, “fitting. […]” for “fitting.”

Human recombinant PKCε = biological target: T4, Human recombinant PKCε (Homo sapiens, UniProt Q02156); assay: Protein Kinase Cε assay; type: biochemical; conditions: read-out: IC50 in Protein Kinase Cε assay (sentence prints PKCδ)
T4 construct: purchased Oxford Biomedical Research
T4 sequence (Q02156 1-737): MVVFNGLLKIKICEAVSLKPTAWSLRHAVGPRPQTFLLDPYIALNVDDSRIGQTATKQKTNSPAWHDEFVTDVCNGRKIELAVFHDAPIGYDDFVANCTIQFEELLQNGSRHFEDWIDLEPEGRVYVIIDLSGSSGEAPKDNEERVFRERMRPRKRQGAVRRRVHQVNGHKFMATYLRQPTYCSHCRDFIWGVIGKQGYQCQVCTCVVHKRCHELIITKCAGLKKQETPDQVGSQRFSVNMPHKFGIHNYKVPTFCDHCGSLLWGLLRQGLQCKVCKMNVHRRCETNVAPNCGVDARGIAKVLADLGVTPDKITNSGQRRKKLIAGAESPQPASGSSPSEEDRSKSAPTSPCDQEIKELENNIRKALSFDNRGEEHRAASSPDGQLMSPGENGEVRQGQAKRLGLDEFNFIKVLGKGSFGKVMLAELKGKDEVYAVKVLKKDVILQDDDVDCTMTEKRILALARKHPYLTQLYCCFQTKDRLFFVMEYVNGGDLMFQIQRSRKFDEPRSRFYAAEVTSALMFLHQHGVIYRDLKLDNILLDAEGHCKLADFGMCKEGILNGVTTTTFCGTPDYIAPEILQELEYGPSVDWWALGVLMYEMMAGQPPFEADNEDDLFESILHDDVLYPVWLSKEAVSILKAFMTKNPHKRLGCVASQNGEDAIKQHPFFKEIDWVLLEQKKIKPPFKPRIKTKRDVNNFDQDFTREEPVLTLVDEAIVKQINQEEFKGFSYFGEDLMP
Method: as §1, with “IC50 measurement is performed on a routine basis by incubating a serial dilution of inhibitor at concentrations ranging between 1-1000 μM according to the method described above.” left out, “fitting. […]” for “fitting.”

Human recombinant PKCη = biological target: T5, Human recombinant PKCη (Homo sapiens, UniProt P24723); assay: Protein Kinase Cη assay; type: biochemical
T5 construct: purchased PanVera
T5 sequence (P24723 whole entry): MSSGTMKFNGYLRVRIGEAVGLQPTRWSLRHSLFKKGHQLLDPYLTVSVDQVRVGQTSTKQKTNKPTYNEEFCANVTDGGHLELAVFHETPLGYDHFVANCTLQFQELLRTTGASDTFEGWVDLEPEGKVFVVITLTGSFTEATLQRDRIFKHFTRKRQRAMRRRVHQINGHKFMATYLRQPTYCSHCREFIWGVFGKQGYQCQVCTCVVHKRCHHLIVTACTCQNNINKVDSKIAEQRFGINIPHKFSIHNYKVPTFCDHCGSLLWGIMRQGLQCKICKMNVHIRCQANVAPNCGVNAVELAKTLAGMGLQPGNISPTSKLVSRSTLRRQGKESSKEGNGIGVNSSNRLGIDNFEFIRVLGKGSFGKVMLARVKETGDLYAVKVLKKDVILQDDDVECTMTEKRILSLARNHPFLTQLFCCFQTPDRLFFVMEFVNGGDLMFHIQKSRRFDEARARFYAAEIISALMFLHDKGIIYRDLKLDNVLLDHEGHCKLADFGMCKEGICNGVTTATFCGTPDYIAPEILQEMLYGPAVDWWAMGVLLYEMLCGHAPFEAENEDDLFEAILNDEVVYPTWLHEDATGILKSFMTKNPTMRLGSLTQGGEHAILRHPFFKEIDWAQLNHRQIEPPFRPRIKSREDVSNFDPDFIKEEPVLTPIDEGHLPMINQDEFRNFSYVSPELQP
Method: as §1, with “IC50 measurement is performed on a routine basis by incubating a serial dilution of inhibitor at concentrations ranging between 1-1000 μM according to the method described above.” left out, “fitting. […]” for “fitting.”

[1] = test system: Jurkat cells transfected with a human interleukin-2 promoter/reporter gene construct; assay: CD28 costimulation assay (IL-2 promoter/luciferase reporter); type: cell-based; conditions: stimulated Jurkat cells, luciferase reporter
Method: The assay is performed with Jurkat cells transfected with a human interleukin-2 promoter/reporter gene construct as described by Baumann G et al. in Transplant Proc. 1992; 24:43-8, the β-galactosidase reporter gene being replaced by the luciferase gene (de Wet J., et al., Mol. Cell Biol. 1987, 7(2), 725-737). Cells are stimulated by solid phase-coupled antibodies or phorbol myristate acetate (PMA) and the Ca^++ ionophore ionomycin as follows. For antibody-mediated stimulation Microlite TM1 microtiter plates (Dynatech) are coated with 3 μg/ml goat anti-mouse IgG Fc antibodies (Jackson) in 55 μl phosphate-buffered saline (PBS) per well for three hours at RT. Plates are blocked after removing the antibodies by incubation with 2% bovine serum albumin (BSA) in PBS (300 μl per well) for 2 hours at RT. After washing three times with 300 μl PBS per well, 10 ng/ml anti-T cell receptor antibodies (WT31, Becton & Dickinson) and 300 ng/ml anti-CD28 antibodies (15E8) in 50 μl 2% BSA/PBS are added as stimulating antibodies and incubated overnight at 4° C. Finally the plates are washed three times with 300 μl PBS per well. Seven three-fold serial dilutions of test compounds in duplicates in assay medium (RPMI 1640/10% fetal calf serum (FCS) containing 50 μM 2-mercaptoethanol, 100 units/ml penicillin and 100 μg/ml streptomycin) are prepared in separate plates, mixed with transfected Jurkat cells (clone K22 290_H23) and incubated for 30 minutes at 37° C. in 5% CO2. […] After incubation for 5.5 hours at 37° C. in 5% CO2, the level of luciferase is determined by bioluminescence measurement. […] Luciferase activity is assessed with a bioluminescence reader (Labsystem, Helsinki, Finland) after automatic addition of 50 μl per well luciferase reaction buffer containing 20 mM Tricine, 1.07 mM (MgCO3)4Mg(OH)2×5H2O, 2.67 mM MgSO4, 0.1 mM EDTA, 33.3 mM DTT, 270 μM coenzyme A, 470 μM luciferin (Chemie Brunschwig AG), 530 μM ATP, pH 7.8. […] The inhibition obtained in the presence of a test compound is calculated as percent inhibition of the high control. […]

[2] = test system: spleen cells from CBA and BALB/c mice; assay: Allogeneic mixed lymphocyte reaction (MLR); type: cell-based; conditions: Mus musculus, two-way MLR, 3H-thymidine incorporation
Method: The two-way MLR is performed according to standard procedures (J. Immunol. Methods, 1973, 2, 279 and Meo T. et al., Immunological Methods, New York, Academic Press, 1979, 227-39). Briefly, spleen cells from CBA and BALB/c mice (1.6×10^5 cells from each strain per well in flat bottom tissue culture microtiter plates, 3.2×10^5 in total) are incubated in RPMI medium containing 10% FCS, 100 U/ml penicillin, 100 μg/ml streptomycin (Gibco BRL, Basel, Switzerland), 50 μM 2-mercaptoethanol (Fluka, Buchs, Switzerland) and serially diluted compounds. Seven three-fold dilution steps in duplicates per test compound are performed. After four days of incubation 1 μCi ^3H-thymidine is added. Cells are harvested after an additional five-hour incubation period, and incorporated ^3H-thymidine is determined according to standard procedures. Background values (low control) of the MLR are the proliferation of BALB/c cells alone. Low controls are subtracted from all values. High controls without any sample are taken as 100% proliferation. Percent inhibition by the samples is calculated, and the concentrations required for 50% inhibition (IC50 values) are determined.

GSK-3β = GSK-3β (Homo sapiens, UniProt P49841); assay: Inhibition of GSK-3β; type: biochemical
Chain of GSK-3β (P49841 whole entry, species assumed): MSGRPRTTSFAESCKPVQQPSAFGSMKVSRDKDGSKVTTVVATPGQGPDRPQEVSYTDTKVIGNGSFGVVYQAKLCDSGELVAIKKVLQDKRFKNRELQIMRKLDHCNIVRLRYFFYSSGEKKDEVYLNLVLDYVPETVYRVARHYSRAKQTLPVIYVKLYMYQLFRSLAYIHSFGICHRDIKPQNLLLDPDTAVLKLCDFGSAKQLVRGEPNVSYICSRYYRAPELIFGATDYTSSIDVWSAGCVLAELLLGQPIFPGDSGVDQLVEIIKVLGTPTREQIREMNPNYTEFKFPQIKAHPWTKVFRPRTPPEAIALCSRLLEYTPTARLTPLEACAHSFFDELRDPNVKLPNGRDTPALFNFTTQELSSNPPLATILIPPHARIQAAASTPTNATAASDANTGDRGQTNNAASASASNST
Method: The GSK-3β bidding assay is performed in 50 μl reactions in 96 well polypropylene plate, each reaction containing 20 mM magnesium chloride, 40 μM ATP, 2 mM DTT, 88.5 μM biotinylated and phosphorylated CREB-peptide substrate (biotin-KRREILSRRPS(PO4)YR—OH; Q. M. Wang et al., J. Biol. Chem. 269, 14566-14574, 1994), [γ-^33P]ATP (1 μCi) and 2 μl of the compound to be tested in DMSO (various concentrations). 15 μl of GSK-3β (various concentrations) is added and the mixture is incubated at 30° C. for 1 hour. The reaction is stopped by transferring 25 μl of the mixture to a phosphocellulose plate containing 130 μl of 1.85% phosphoric acid. The free radionucleotides in the membrane are washed off under vacuum with 1.85% phosphoric acid (5 times). After the last wash, the plate is transferred to an adaptor plate and 50 μl of scintillation cocktail (Microscint-20, Packard, cat. # 20-133) is added to each well and the amount of radioactivity is counted in a top counter. Compounds of formula I are active in this assay.

lymph node enlargement = assay: Graft v. host model; type: in vivo, rat; conditions: days 0-3, lymph nodes removed day 7
Method: Spleen cells (2×10^7) from Wistar/F rats are injected subcutaneously into the right hind footpad of (Wistar/F×Fischer 344)F1 hybrid rats. The left footpad is left untreated. The animals are treated with the test compounds on 4 consecutive days (0-3). The popliteal lymph nodes are removed on day 7, and the weight differences between two corresponding lymph nodes are determined. The results are expressed as the inhibition of lymph node enlargement (given in percent) comparing the lymph node weight differences in the experimental groups to the weight difference between the corresponding lymph nodes from a group of animals left untreated with a test compound. In this assay, an inhibition of 100% is obtained with compound of Example 1 or 10 when administered at a dose of 30 or 10 mg/kg bid, respectively.

Chain of Human recombinant PKCθ (Q04759 whole entry, canonical isoform): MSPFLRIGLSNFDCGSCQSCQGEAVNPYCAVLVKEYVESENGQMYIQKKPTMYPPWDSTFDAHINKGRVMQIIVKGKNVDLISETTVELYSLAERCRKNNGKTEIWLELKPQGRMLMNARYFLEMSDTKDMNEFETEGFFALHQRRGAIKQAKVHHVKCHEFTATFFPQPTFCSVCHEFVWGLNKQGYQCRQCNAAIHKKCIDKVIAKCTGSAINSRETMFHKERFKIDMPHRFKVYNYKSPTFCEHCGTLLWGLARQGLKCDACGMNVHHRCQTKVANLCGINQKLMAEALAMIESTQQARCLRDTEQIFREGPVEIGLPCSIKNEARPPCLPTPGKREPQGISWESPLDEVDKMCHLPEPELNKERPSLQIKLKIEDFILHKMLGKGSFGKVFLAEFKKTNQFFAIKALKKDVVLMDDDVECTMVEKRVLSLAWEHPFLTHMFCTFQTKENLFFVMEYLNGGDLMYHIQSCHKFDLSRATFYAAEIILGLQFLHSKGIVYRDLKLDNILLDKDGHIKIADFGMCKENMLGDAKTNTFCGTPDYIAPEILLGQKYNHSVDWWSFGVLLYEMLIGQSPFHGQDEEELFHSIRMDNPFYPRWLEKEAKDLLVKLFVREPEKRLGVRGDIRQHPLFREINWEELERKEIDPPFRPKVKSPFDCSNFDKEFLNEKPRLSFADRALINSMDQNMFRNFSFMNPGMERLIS

Row | IC50 (Human recombinant PKCθ) [nM] | IC50 (Human recombinant PKCα) [nM] | IC50 (Human recombinant PKCβ1) [nM] | IC50 (Human recombinant PKCδ) [nM] | IC50 (Human recombinant PKCε) [nM] | IC50 (Human recombinant PKCη) [nM] | IC50 [1] [nM] | IC50 [2] [nM] | IC50 (GSK-3β) [nM] | SMILES | inhibition of lymph node enlargement (lymph node enlargement; 30 mg/kg bid) [%] | inhibition of lymph node enlargement (lymph node enlargement; 10 mg/kg bid) [%]
1 | 9.3 | 7.5 | 14.9 | 29.5 | 7.6 | 15 | 28.3 | 32.5 | 25 | Cc1cccc2c(C3=C(c4c(Cl)ccc5[nH]c(CN(C)C)cc45)C(=O)NC3=O)c[nH]c12 [Example 41] | – | –
2 | 5.4 | 2.9 | 5.9 | 21 | 14.7 | 15.3 | 13 | 28.8 | 18 | CN1CCN(c2ccc(C(F)(F)F)c(C3=C(c4c[nH]c5ccccc45)C(=O)NC3=O)n2)CC1 [Example 1, 3-(1H-Indol-3-yl)-4-[6-(4-methyl-piperazin-1-yl)-3-tifluoromethyl-pyridin-2-yl]-pyrrole-2,5-dione] | 100 | –
3 | – | 6.3 | 13.2 | – | – | – | 46.7 | 285 | – | CN(C)Cc1cc2c(C3=C(c4cn(C)c5ccccc45)C(=O)NC3=O)cccc2[nH]1 [Example 39] | – | –
4 | 5.8 | – | – | – | – | – | – | – | – | CN1CCN(c2ccc(Cl)c(C3=C(c4c[nH]c5ccccc45)C(=O)NC3=O)n2)CC1 [Example 10] | – | 100
